The results in this text go back to patent US20200268832A1, “COMPOSITIONS FOR DELIVERY TO AND TREATMENT OF ATHEROSCLEROTIC PLAQUES” (Sanford Burnham Prebys Medical Discovery Institute, priority 2015, published 2020).

Data set [1] deals with T1, p32 protein (Homo sapiens, UniProt Q07021).
T1 construct: 6xHis; host or cells: Rosetta-gami-2 cells (Novagen); an E. coli strain by own knowledge
T1 sequence (Q07021 74-282): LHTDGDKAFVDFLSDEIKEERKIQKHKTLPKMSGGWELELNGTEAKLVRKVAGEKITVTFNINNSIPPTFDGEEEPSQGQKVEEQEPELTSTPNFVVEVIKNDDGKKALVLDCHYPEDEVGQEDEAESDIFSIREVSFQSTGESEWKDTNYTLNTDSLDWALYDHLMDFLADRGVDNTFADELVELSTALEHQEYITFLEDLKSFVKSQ
As to the kind of experiment: Fluorescence polarization assay: displacement of FAM-TT1 from p32 (HTS, dose response, unlabeled peptide competition). It is filed as binding. The procedure:
Fluorescence polarization (FP)-based assay was used for solution-based screening of compound libraries for p32 binding compounds. […] In FP assay, peptide conjugated with a fluorescent label (fluorescein-AM, FAM) is excited with polarized light. […] 6×-His-Tagged p^32 was expressed in Rosetta-gami-2 cells (Novagen). The protein was purified by IMAC using HIS-select resin (Sigma) with an imidizole gradient from 20-300 mM and eluted fractions were analyzed on analytical SDS-PAGE. […] Fluorescence polarization is given as milli-polarization (mP) value, which is obtained from equation (1):
mP=1000*(S−P)/(S+P), (Eq. 1)
The assay was initially set up in 20 μl well volume in 384 well plate (Corning Life Sciences), and measurements were carried out using PheraStar FS plate reader (BMG LABTECH, Ortenberg, Germany) in quadruplicate. Peptide and protein stock solutions were diluted to desired concentration with assay buffer (50 mM BIS-TRIS pH 7.4, 0.05% Tween20, 1 mM DTT). FAM-labeled peptides were protected from light during the experiment to avoid photobleaching. Optimal concentration of fluorescein (FAM) labeled-peptides for the assay was determined by measuring the limit of detection (LOD), signal-to-background ratio (S/B), and stability of mP value over series of peptide concentrations. In the binding assay, the concentration of FAM-peptide was kept constant, and the FP was measured over the range of target protein concentrations. The peptide dissociation constant (KD) was obtained by fitting the binding curve into Michaelis-Menten kinetics in GraphPad Prism-software (GraphPad Software, Inc., CA, USA).
FAM-TT-1 and p32 solutions are prepared just before experiment, and stored on ice during the screen; the peptide is shielded from light. • 1. […] Dispense 1.5 μL of assay buffer (50 mM BIS-TRIS pH 7.4, 0.05% Tween 20, 1 mM DTT) into columns 1-4 • 3. […] Dispense 37.5 nL of compounds (2 mM) into columns 5-44 • 5. Spin plate • 6. Incubate 20 min • 7. Dispense 1.5 μL FAM-TT-1 peptide (20 nM) into all columns • 8. Shake plate and spin plate • 9. Incubate 25 min • 10. Read plate on PheraStar FS
Chemical library of ˜50,000 compounds from ChemBridge (San Diego, Calif.) was screened in High-Throughput Screening Facility at Conrad Prebys Center for Chemical Genomics (Sanford-Burnham Medical Research Institute, La Jolla, Calif.). […] Peptide and protein were diluted immediately prior to screening, kept on ice during screening, and FAM-peptide was protected from light throughout the experiment. […]
For orientation: In fluorescence polarisation assays a small probe gives low polarisation when free and higher when bound to something large.

Data set [2] has as its target T1, p32 protein. As to the kind of experiment: TT1 phage binding inhibition assay (ELISA-type). As to conditions: 100 μM compound. The procedure: The binding of individual phage to p32 was verified using ELISA-type of phage binding assay. 96-well plates (Corning Life Sciences, Tewksbury, Mass., USA) were coated with 100 μL of 5 μg/mL p32 in PBS at 4° C. overnight, washed 3 times with 200 μL of PBST (PBS+0.05% Tween-20), blocked with 200 μL of 0.5% bovine serum albumin (BSA) in PBST for 1 h at 37° C., and washed 3 times with PBST. Phages (1.11*10^8 pfu in 100 μL PBST) were added to p32-coated/BSA-blocked wells, the plate was incubated at 4° C. overnight, and washed 3 times with PBST. Subsequently, the plates were incubated with 100 μL in-house prepared polyclonal rabbit anti-T7 antibody diluted 1:1000 in PBST for 1 h at 4° C., and washed 3 times with washing buffer. Horseradish peroxidase (HRP)-labeled anti-rabbit IgG (Sigma-Aldrich) was diluted 1:1000 in PBS, and 100 μL was added to the wells, followed by 1 h incubation at 4° C. and washing 3 times. Next, 100 μL of OPD silver and gold substrate (Sigma-Aldrich) was added to the wells and incubated at room temperature until visible color was observed (<30 min). The reaction was stopped by adding 50 μL of 1M H2SO4, and the plate was read at 492 nm (Varioskan Flash, Thermo Scientific, Waltham, Mass., USA).
The ability to inhibit TT1-phage binding to p32 protein was used as a secondary assay to verify the hit compounds. The competition assay was based on the phage binding assay described above with minor modifications. ELISA plates were coated with 2.5 μg/mL p32, incubated with phages (1.11*10^8 pfu in 100 μL PBST) and 100 μM hit compounds at 4° C. overnight, and followed by antibody incubation and chromogenic reaction. Negative controls included DMSO at concentration it was used to dissolve the hit compounds.

In another data set the test system is plaque macrophages. The data set can be described thus: Cytotoxicity to plaque macrophages ex vivo. It is filed as cell-based. The text has this:
Two of the hits from the screen passed all the specificity tests, and one of these has been characterized to some extent in vivo (FIG. 10). […] Thus, the discovered compounds, especially #008 and #7933989, served as a starting point for other compounds with affinity for p32. Orally available compounds provide significant new opportunities in prevention and treatment of atherosclerosis.

For orientation: inhibition means the change of the read-out against control, counted positive when it falls.

`Cc1cnccc1NCCN` [Compound 4014008, N-(3-methylpyridin-4-yl)ethane-1,2-diamine]: at 25 µM the inhibition at p32 protein [1] (high-throughput screen hits, inhibition of TT1-p32 interaction, library compounds 25 μM (Table 1), b410 says 100 μM) was 29.9%. Also, the inhibition at 100 µM at p32 protein [1] (highest concentration used, 100 μM, read-out: inhibition of FAM-TT1 binding to p32 in FP assay) is 75%; at p32 protein [2] it was 50%. In addition, in the data set with plaque macrophages, the “cytotoxicity to plaque macrophages” value was “cytotoxic to plaque macrophages”.
